Columns and labels:
[1] = Calculated risperidone release and plasma levels in dogs from in vitro release (in vitro to in vivo correlation); settings: suggested by calculated release and apomorphine data
[2] = Risperidone release from ATRIGEL implants in rats (implant retrieval; 24-hour burst, 14-day and 28-day studies); type: in vivo, Sprague-Dawley rats; settings: 28 days
Experimental: The retrieved implants and tissue were placed in a −86° C. freezer for at least 1 hour. The frozen samples were lyophilized for at least 4 hours. The dry samples were minced with scissors, which were cleaned after each sample to minimize cross-contamination. The samples were minced until powder-like. Approximately 5 mL of 70:30 dimethylsulfoxide/methanol with 1% polyethyleneimine extraction solvent was added to each sample. The samples were mixed overnight at about 200 rpm at 37° C. on the orbital shaker. The samples were sonicated for 10 minutes. 1.5 mL of the extract was loaded into a 3 mL lure lock syringe and filtered through a 0.2 μm pore size filter into a clean test tube. 1 mL of the filtrate was placed into a clean test tube and 4 mL of 50:50 acetonitrile/H2O was added. The test tube was vortexed for 30 seconds. About 2 mL of the solution was loaded into a 3 mL lure lock syringe and filtered into an High Performance Liquid Chromatography vial.

[3] = limit of solubility
[4] = powder in polypropylene syringes, 5.8 to 31 KGy
Experimental: The eight formulations prepared for testing were sterilized in glass vials and gamma resistant polypropylene copolymer syringes using various dose levels of irradiation.
The dose level was 30 to 33 KGy for each of the samples.
Syringes and glass vials obtained from the gamma radiation testing were analyzed with the control formulations.
These were loaded into gamma-irradiation polypropylene syringes and capped.

Cc1nc2n(c(=O)c1CCN1CCC(c3noc4cc(F)ccc34)CC1)CCCC2 [Risperidone, 4-[2-[4-(6-fluorobenzo[d]isoxazol-3-yl)-1-piperidyl]ethyl]-3-methyl-2,6-diazabicyclo[4.4.0]deca-1,3-dien-5-one]
minimum daily dose of risperidone needed in dogs for a biological response [1]: about 0.6 mg
stability of risperidone in ATRIGEL implants [2]: stable in ATRIGEL® implants for 28 days
solubility in N-methyl-2-pyrrolidone [3]: up to 5 % by weight
color after gamma irradiation [4]: turned beige at the lowest level of irradiation
